The values that follow come from article PMC13192270, “RhlR quorum-sensing receptor ligand sensitivity regulates the differential expression of phenazine genes in Pseudomonas aeruginosa” (Journal of Bacteriology, 2026).

In one assay the target is T1, RhlR (T58V) (Pseudomonas aeruginosa, UniProt P54292, T58V).
T1 construct: expressed in transfected cells; host or cells: E. coli carrying pBAD-A-rhlR mutant, pCS26-prhlA-luxCDABE and pACYC-pqsE or empty pACYC
T1 sequence (P54292 1-241 T58V): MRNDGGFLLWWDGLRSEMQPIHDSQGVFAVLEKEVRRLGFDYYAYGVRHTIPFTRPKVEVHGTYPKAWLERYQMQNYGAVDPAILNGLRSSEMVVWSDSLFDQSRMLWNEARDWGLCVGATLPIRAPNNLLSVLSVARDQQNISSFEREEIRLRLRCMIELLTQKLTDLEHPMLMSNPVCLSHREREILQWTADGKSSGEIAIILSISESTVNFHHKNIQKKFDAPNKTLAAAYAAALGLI
The experiment in a line: E. coli prhlA-luxCDABE luciferase reporter assay. Type of assay: cell-based. From the text:
(§1) Previous analysis of the RhlR LBP focused on highly conserved residues that were known from other AHL-binding proteins to be important contacts for AHL molecules, particularly the lactone head group. We performed conservation analyses on 300 LuxR-type receptors to determine variable and moderately conserved residues in the LBP (Fig. 1B) and, in conjunction with our previously determined experimental structure of WT RhlR bound to the synthetic agonist mBTL, used for docking C4- and C6HSL. Based on our docking simulations, C4- and C6HSL occupy a similar position in the LBP as mBTL, a highly efficacious activator of RhlR (Fig. 1C; Fig. S1). We targeted residues A44, G46, T58, L69, Y72, D81, I84, W96, and W108 (Fig. 1B and C). These residues were selected because of their proximity to the acyl tail of C4HSL, as well as the differences in conservation that are observed at these sites. We used an E. coli luciferase reporter assay to monitor ligand-dependent activation of WT RhlR and RhlR variants. WT RhlR and RhlR variants were expressed under the control of an arabinose-inducible promoter (Fig. S2). Transcription was monitored by light production via the expression of the luxCDABE operon controlled by the RhlR-dependent promoter of rhlA. Binding of RhlR to the rhlA promoter is highly dependent on the C4HSL-RhlR interaction, based on ChIP-seq analyses performed in P. aeruginosa as well as previously published E. coli reporter systems ([34], [39]). After expressing WT RhlR and RhlR variants in the E. coli reporter system, we performed dose response assays using C4HSL to calculate the concentration of C4HSL required to activate the reporter system to 50% maximum levels (EC50 value; Table 1). As expected, transcription activation by WT RhlR increased with increased C4HSL levels, with an EC50 value of ~2 µM. We observed a range of responses. Figure 1C depicts the targeted residues, which are colored based on the effect of amino acid substitution.
(§2) RhlR requires the accessory-binding protein, PqsE, for maximal activity. To determine if PqsE expression altered the activation of RhlR variants, we assessed AHL-dependent RhlR activation of the prhlA-luxCDABE reporter in the presence of a third plasmid that constitutively expresses PqsE in E. coli. […] RhlR variants that were still active but with increased EC50 values for C4HSL could have their activity enhanced by PqsE. […] Thus, alterations to the LBP can diminish the additive effect of PqsE-dependent transcription, indicating a potential role of allosteric conformational changes dependent on ligand occupancy. […] RhlR variants at residues I84 and W108 could not be activated by C4HSL, and thus, light levels remained low at all concentrations that were tested. Unlike the aforementioned variants, RhlR I84M/W and RhlR W108F/Y were activated by the expression of PqsE (Fig. S4).
(§3) All E. coli strains in this study were grown overnight with shaking in 5 mL Luria-Bertani (LB) media supplemented with 100 µg/mL ampicillin, 50 µg/mL kanamycin, and 15 µg/mL tetracycline at 37°C overnight. Overnight cultures were diluted 1:100 into fresh media, grown at 37°C with shaking for 2 h until reaching OD600 = 0.4. Cultures were induced with a final concentration of 0.1% arabinose, and 198 μL of the induced culture was mixed with 2 μL of C4HSL dilutions in a clear-bottom, black-opaque 96-well plate (Corning) and grown at 37°C with shaking for 4 h. The C4HSL dilution series was performed 1:1 in dimethyl sulfoxide (DMSO) with a top final concentration of 10 μM. Luminescence and optical density were recorded using a Glomax (Promega) plate reader.

The target of the next assay is T2, WT RhlR (Pseudomonas aeruginosa, UniProt P54292).
T2 construct: expressed in transfected cells; host or cells: E. coli carrying pBAD-A-rhlR, pCS26-prhlA-luxCDABE and pACYC-pqsE or empty pACYC
T2 sequence (P54292 1-241): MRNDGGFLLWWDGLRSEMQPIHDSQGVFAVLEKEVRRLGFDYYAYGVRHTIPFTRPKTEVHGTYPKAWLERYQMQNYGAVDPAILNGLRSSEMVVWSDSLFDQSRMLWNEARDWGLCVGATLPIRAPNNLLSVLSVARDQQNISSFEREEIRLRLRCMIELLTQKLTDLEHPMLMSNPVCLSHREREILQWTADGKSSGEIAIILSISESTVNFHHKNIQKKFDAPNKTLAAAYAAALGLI
The assay can be described thus: E. coli prhlA-luxCDABE luciferase reporter assay. It is filed as cell-based. To be noted: read-out: EC50.
Text: as §1, §2, §3

Another assay addresses T3, RhlR (T58F) (Pseudomonas aeruginosa, UniProt P54292, T58F).
T3 construct: expressed in transfected cells; host or cells: E. coli carrying pBAD-A-rhlR mutant, pCS26-prhlA-luxCDABE and pACYC-pqsE or empty pACYC
T3 sequence (P54292 1-241 T58F): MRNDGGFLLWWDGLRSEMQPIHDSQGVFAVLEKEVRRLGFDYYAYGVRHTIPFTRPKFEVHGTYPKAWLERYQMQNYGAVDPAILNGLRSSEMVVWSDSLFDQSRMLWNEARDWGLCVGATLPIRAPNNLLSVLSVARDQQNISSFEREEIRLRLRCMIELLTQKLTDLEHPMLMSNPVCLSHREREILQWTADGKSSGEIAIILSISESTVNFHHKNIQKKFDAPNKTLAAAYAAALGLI
The assay can be described thus: E. coli prhlA-luxCDABE luciferase reporter assay. It is filed as cell-based, Escherichia coli.
Text: as §1, §2, §3

The target in a further assay is T4, RhlR (T58I) (Pseudomonas aeruginosa, UniProt P54292, T58I).
T4 construct: expressed in transfected cells; host or cells: E. coli carrying pBAD-A-rhlR mutant, pCS26-prhlA-luxCDABE and pACYC-pqsE or empty pACYC
T4 sequence (P54292 1-241 T58I): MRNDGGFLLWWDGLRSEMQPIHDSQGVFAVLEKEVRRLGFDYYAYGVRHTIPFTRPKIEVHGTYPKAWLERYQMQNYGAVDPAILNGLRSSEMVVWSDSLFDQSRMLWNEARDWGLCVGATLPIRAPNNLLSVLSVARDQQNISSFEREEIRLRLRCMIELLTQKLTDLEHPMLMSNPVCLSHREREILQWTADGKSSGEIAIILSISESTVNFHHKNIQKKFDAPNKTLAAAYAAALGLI
The assay can be described thus: E. coli prhlA-luxCDABE luciferase reporter assay. It is filed as cell-based, Escherichia coli.
Text: as §1, §2, §3

For another assay, the target named is T5, RhlR (T58L) (Pseudomonas aeruginosa, UniProt P54292, T58L).
T5 construct: expressed in transfected cells; host or cells: E. coli carrying pBAD-A-rhlR mutant, pCS26-prhlA-luxCDABE and pACYC-pqsE or empty pACYC
T5 sequence (P54292 1-241 T58L): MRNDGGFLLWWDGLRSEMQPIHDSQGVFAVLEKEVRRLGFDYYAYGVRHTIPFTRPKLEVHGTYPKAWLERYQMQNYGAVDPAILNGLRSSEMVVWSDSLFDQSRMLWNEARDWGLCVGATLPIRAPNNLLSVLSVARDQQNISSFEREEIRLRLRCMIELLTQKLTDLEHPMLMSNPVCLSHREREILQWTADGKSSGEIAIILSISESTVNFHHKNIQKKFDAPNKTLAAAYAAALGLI
The experiment in a line: E. coli prhlA-luxCDABE luciferase reporter assay. Type of assay: cell-based, Escherichia coli.
Text: as §1, §2, §3

The next assay deals with LasR. Also on record: method as in PMID 28119451. To be noted: cited from earlier work.
In a further assay the target is 6x-His-PqsE (Pseudomonas aeruginosa, UniProt P20581 1-301). The experiment in a line: cell-based or functional assay.

Where two headings read alike, the source gives them in different places.

For the molecule `CCCCCC(=O)N[C@H]1CCOC1=O` [C6HSL], the EC50 at RhlR (T58V) (Vector (no pqsE)) stood at 809 nM; at RhlR (T58V) (pqsE co-expressed) it was 111 nM; on WT RhlR (Vector (no pqsE)), 12600 nM; on WT RhlR (pqsE co-expressed) it was 9240 nM; at RhlR (T58F) (Vector (no pqsE)) it was 580 nM; on RhlR (T58F) (pqsE co-expressed) it was 103 nM. The concentration for a half-maximal effect (EC50) was found to be 561 nM on RhlR (T58I) (Vector (no pqsE)), 51.1 nM at RhlR (T58I) (pqsE co-expressed), 168 nM on RhlR (T58L) (Vector (no pqsE)) and 0.908 nM on RhlR (T58L) (pqsE co-expressed).
On to `CCCCCCCCCC(=O)CC(=O)N[C@H]1CCOC1=O` [3OC12HSL, N-(3-oxododecanoyl)-L-homoserine lactone], for which the EC50 in the assay with LasR was roughly 2 nM.

B1: WT RhlR (receptor)
chain: MRNDGGFLLWWDGLRSEMQPIHDSQGVFAVLEKEVRRLGFDYYAYGVRHTIPFTRPKTEVHGTYPKAWLERYQMQNYGAVDPAILNGLRSSEMVVWSDSLFDQSRMLWNEARDWGLCVGATLPIRAPNNLLSVLSVARDQQNISSFEREEIRLRLRCMIELLTQKLTDLEHPMLMSNPVCLSHREREILQWTADGKSSGEIAIILSISESTVNFHHKNIQKKFDAPNKTLAAAYAAALGLI
As for B1, the “prhlA-luxCDABE reporter in E. coli: C4HSL-RhlR-dependent expression with PqsE expressed from a third plasmid (pACYC) against the empty vector” value with 6x-His-PqsE is roughly 20 fold.
